Experimental findings from patent publication US20020114804A1, “A METHOD OF TREATING INFECTION OF SUTURES AND PROSTHETIC DEVICES” (priority 1996, published 2002) are described below.

Molecules are shown by their SMILES.

Format in all cases: cell-based, human
In test [1] the test system is PMNs. The experiment in a line: PMN migration through filters coated with fibrinogen or fibronectin. How it is done: (§1) Becton-Dickinson cell culture inserts (pore sizes 3 or 8 μm: Franklin Lakes, N.J.) were overlaid with the following proteins:
Fibrinogen or fibronectin: 0.1 ml of PBS containing 100 μg/ml fibrinogen or fibronectin (New York Blood Center, New York, N.Y.), was placed into each insert (pore size 3 μm). Inserts were incubated at 37° C. for 60 min and washed with 250 μl of PBS. Filters coated with fibrinogen or fibronectin were diffusely fluorescent as visualized by epifluorescent microscopy when incubated with the corresponding antibody [fluorescein-labeled anti-fibrinogen, or anti-fibronectin monoclonal antibodies (Cappel, Malvern, Pa.)], while uncoated filters, or filters incubated with fluorescein-labeled antibody of the opposite specificity, were not.
PMNs were prepared from fresh heparinized blood from healthy adult volunteers by sedimentation on Ficoll-Hypaque gradients. Contaminating red blood cells were removed by hypotonic lysis, as described (7). The purity of PMN isolated by this method is >95% as determined by Wright-Giemsa staining (7). […] The medium in each lower compartment was collected and its content of PMNs was determined using either a Coulter Counter or a hemocytometer. […] Counts are expressed as the average number of PMNs that migrated into the lower compartment. […]

Test [2] has as its system PMNs. Put plainly: PMN migration through Matrigel or Matrigel/tenascin coated filters. The note with it: Matrigel alone. How it is done: Polymorphonuclear leukocytes (PMN), were prepared as described (7) from heparinized human blood by sedimentation on Ficoll-Hypaque gradients. Contaminating red blood cells were removed by hypotonic lysis. The purity of PMN isolated by this method was >95% as determined by Wright-Giemsa staining.
Cell culture inserts containing polyethylene terephthalate filters, 8-μm pore size (Becton-Dickinson), were overlaid with 0.1 ml of Matrigel (20-25 μg protein/filter) (Collaborative Research, Bedford, Mass.), and incubated at room temperature until they dried. These Matrigel-coated filters were washed with phosphate buffered saline containing 1.0 mM Mg^2+ and 1.0 mM Ca^2+ (PBS). 0.1 ml of a PBS solution (pH 7.2) containing the indicated amount of purified chick brain tenascin was added to some of the inserts. The filters were incubated at room temperature until they dried. These protein-coated filters were washed again with PBS and used within 12 h for cell migration studies. To prepare collagen I-coated inserts, filters were coated with rat tail collagen I (ICN Biochemicals, Costa, Mesa, Calif.) (400 μg/ml in PBS), by adding 0.1 ml of this solution to an insert and incubating the inserts at room temperature for 24 h. Some of these collagen I-coated filters were then incubated with tenascin as described above.
PMN: 250 μl of PBS [supplemented with 5.5 mM glucose and 0.1% human serum albumin (HSA) (PBSG-HSA)] containing 1×10^6 PMNs was placed in the upper compartment of each insert. 250 μl of PBSG-HSA with or without chemoattractant, as indicated, was added to the bottom compartment. The inserts were incubated for about 4 h at 37° C. in a humidified atmosphere containing 95% air/5% CO2. […] The medium in the lower compartment was collected and its content of PMN determined using a Coulter Counter, as described in Example 1.

For test [3], the system named is PMNs. Put plainly: Exclusion of fluorescein-conjugated F(ab)2 anti-fibrin from zones of contact between PMNs and fibrin. From the text:
Therefore, the exclusion of fluorescein-conjugated F(ab)2 anti-fibrin from zones of contact between LTB4- or IL-8-stimulated PMNs and fibrin was used as a measure of the interaction of these cells with fibrin-coated surfaces. About 50% of fibrin-adherent LTB4- or IL-8-stimulated PMNs formed adhesive zones that excluded this high molecular weight (100 kDa.) probe. As expected from studies with Rh-PEG (FIG. 8), >99% of fibrin-adherent TNF- or fMLP-stimulated PMNs excluded fluorescein-conjugated F(ab)2 anti-fibrin from their zones of contact with fibrin (data not shown).

For test [4], the system named is PMNs. The experiment in a line: PMN migration through fibrin gels in Boyden-type chemotaxis chambers. How it is done: as §1
Fibrin gels: 1 Unit of thrombin (a gift from Dr. John Fenton, Albany Medical College, Albany, N.Y.), in 5 μl of PBS was added first to each insert. 0.1 ml phosphate buffered saline supplemented with Ca^2+ and Mg^2+ (PBS) containing 100 μg commercial grade fibrinogen (Calbiochem. Inc., San Diego, Calif.) or purified fibrinogen [a gift from Dr. Jeffery Weitz, (MacMaster University, Hamilton, On.)] was then placed into each 8.2 mm diameter insert on top of the thrombin. The mixture was incubated at 37° C. for 5 min to allow fibrin gel formation (determined by visual inspection). 1 Unit PPACK (Calbiochem Inc., San Diego, Calif.; 10^−5 M final concentration), in 100 μl medium was added to each insert to inhibit thrombin, and gels were washed with 250 μl PBS to remove inactivated thrombin. The fibrin gels formed were about 1 mm thick as measured under a dissecting microscope.
PMNs were prepared from fresh heparinized blood from healthy adult volunteers by sedimentation on Ficoll-Hypaque gradients. Contaminating red blood cells were removed by hypotonic lysis, as described (7). The purity of PMN isolated by this method is >95% as determined by Wright-Giemsa staining (7). 10^6 PMNs in 250 μl of PBS supplemented with 5.5 mM glucose and 0.1% human serum albumin (PBSG-HSA), were placed in the upper compartment of each insert and incubated for 0-6 hrs at 37° C. in a humidified atmosphere containing 95% air/5% CO2. At the times and concentrations specified, chemoattractants/cytokines were added to the top or bottom compartment in 250 μl of PBSG-HSA. At the end of the incubation, the chambers were shaken to dislodge PMNs from the lower surface of the inserts. The medium in each lower compartment was collected and its content of PMNs was determined using either a Coulter Counter or a hemocytometer. Both methods gave similar results. Counts are expressed as the average number of PMNs that migrated into the lower compartment. Unless otherwise indicated, all values reported are the average of six data points from at least 3 independent experiments.

With `CCCCC/C=C\C[C@@H](O)/C=C/C=C/C=C\[C@@H](O)CCCC(=O)O` [LTB4, leukotriene B4], the “PMN migration through filters with adsorbed fibrinogen or fibronectin” value with PMNs [1] is “promoted PMN migration”. Besides, the “PMNs that migrated through Matrigel-coated inserts” value with PMNs [2] is roughly 10%. In addition, the “Fibrin-adherent PMNs that excluded fluorescein-conjugated F(ab)2 anti-fibrin (100 kDa)” value with PMNs [3] is recorded as “About 50%”. The “More PMNs migrated through fibrin in response to LTB4 than to IL-8” value in the test on PMNs [4] was 25-50%. Also, the “PMN migration through fibrin gels at supra-optimal concentrations” value with PMNs [4] (IL-8 at >10^−7 M, supra-optimal LTB4) was “no indication of PMN desensitization”. The “PMN migration through fibrin gels (in words)” value in the test on PMNs [4] (chemoattractant in lower compartment, zymosan-activated human plasma 2-10%) was “migrated”. The “PMN migration through fibrin gels without gradient” value in the test with PMNs [4] (chemoattractant in upper compartment, or equal concentrations in upper and lower compartments) is “Few PMNs migrated”. In the test on PMNs [4] (in bottom compartment, 6 hrs), the “Concentration giving maximal PMN migration through fibrin gels” value came to 20 nM. In addition, in the test on PMNs [4] (optimal concentration, 2 hrs), the “PMNs that migrated through fibrin gels within 2 hrs” value is given as “Ten”.
